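Briefly, cells in 96-well plates were exposed to five compound concentrations for 48 h, and endpoints were estimated by linear interpolation. At the GI50, growth is halved.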 Active and inactive are the calls of the source. Rule as the data show it: active = GI50 up to about 1.1 µM and inactive = higher. Square brackets hold non-standard residues; d marks the D form. Peptide text beside a SMILES is read from it. * marks the point of attachment. Boc = CC(C)(C)OC(=O)*; Lac = C[CH](O)C(=O)O; OBn = c1ccc(CO*)cc1
Columns and labels:
Assay in all cases: NCI anticancer screen, dose series, 48 h
Hs-578T = system: Hs-578T
MDA-N = system: MDA-N
T47D = system: T47D
NCI-H522 = system: NCI-H522
MDA-MB-435 = system: MDA-MB-435
SF-539 = system: SF-539
PC-3 = system: PC-3
A498 = system: A498
HOP-62 = system: HOP-62
NCI/ADR-RES = system: NCI/ADR-RES
BT-549 = system: BT-549
KM12 = system: KM12
SF-295 = system: SF-295
Malme-3M = system: Malme-3M
RXF 393 = system: RXF 393
HOP-18 = system: HOP-18
DMS-114 = system: DMS-114
M19-MEL = system: M19-MEL
DMS-273 = system: DMS-273
LXFL 529 = system: LXFL 529

| SMILES | GI50 (Hs-578T) | GI50 (MDA-N) | GI50 (T47D) | GI50 (NCI-H522) | GI50 (MDA-MB-435) | GI50 (SF-539) | GI50 (PC-3) | GI50 (A498) | GI50 (HOP-62) | GI50 (NCI/ADR-RES) | GI50 (BT-549) | GI50 (KM12) | GI50 (SF-295) | GI50 (Malme-3M) | GI50 (RXF 393) | GI50 (HOP-18) | GI50 (DMS-114) | GI50 (M19-MEL) | GI50 (DMS-273) | GI50 (LXFL 529) |
| --- | --- | --- | --- | --- | --- | --- | --- | --- | --- | --- | --- | --- | --- | --- | --- | --- | --- | --- | --- | --- |
| Nc1ccn(C2OC(CO[PH](=O)OC3C(CO[PH](=O)OC4C(CO[PH](=O)OC5C(CO[PH](=O)OC6C(CO[PH](=O)OC7C(CO[PH](=O)OC8C(CO[PH](=O)OC9C(CO[PH](=O)OC%10C(CO[PH](=O)OC%11C(CO)OC(n%12ccc(N)nc%12=O)C%11(F)F)OC(n%11ccc(N)nc%11=O)C%10(F)F)OC(n%10ccc(N)nc%10=O)C9(F)F)OC(n9ccc(N)nc9=O)C8(F)F)OC(n8ccc(N)nc8=O)C7(F)F)OC(n7ccc(N)nc7=O)C6(F)F)OC(n6ccc(N)nc6=O)C5(F)F)OC(n5ccc(N)nc5=O)C4(F)F)OC(n4ccc(N)nc4=O)C3(F)F)C(O)C2(F)F)c(=O)n1 (stereo not given) | 2.22 µM (inactive) | 0.0442 µM (active) | 0.553 µM (active) | 1.43 µM (inactive) | 0.0526 µM (active) | 0.0112 µM (active) | 5.5 µM (inactive) | 0.114 µM (active) | 0.0581 µM (active) | 0.051 µM (active) | 0.0661 µM (active) | 5.38 µM (inactive) | 0.0697 µM (active) | 0.391 µM (active) | – | – | – | – | – | – |
| COc1cc2cc(C(=O)N3CC(CCl)c4ccc(NO)cc43)[nH]c2c(OC)c1OC (stereo not given) | 0.296 µM (active) | 0.249 µM (active) | 0.436 µM (active) | 0.0671 µM (active) | 0.216 µM (active) | 0.353 µM (active) | 0.0914 µM (active) | 0.0675 µM (active) | 0.0925 µM (active) | 0.0723 µM (active) | 0.253 µM (active) | 0.155 µM (active) | 0.0836 µM (active) | 0.164 µM (active) | 0.114 µM (active) | – | – | – | – | – |
| O=C1Nc2ccc(Cl)cc2/C1=C\c1c(Cl)nc2sccn12 | – | 1.91 µM (inactive) | > 100 µM (inactive) | 5.62 µM (inactive) | 0.787 µM (active) | – | 4.93 µM (inactive) | 0.0632 µM (active) | 13.9 µM (inactive) | 3.1 µM (inactive) | 7.57 µM (inactive) | 2.25 µM (inactive) | 3.96 µM (inactive) | > 100 µM (inactive) | 18.6 µM (inactive) | – | – | – | – | – |
| C[C@H]1S[C@@H](c2ccc(Cl)cc2Cl)N(NC(=O)c2ccncc2)C1=O | 94.2 µM (inactive) | > 10 µM (inactive) | 33 µM (inactive) | 37.8 µM (inactive) | 43.6 µM (inactive) | – | 33 µM (inactive) | > 100 µM (inactive) | > 100 µM (inactive) | 21.7 µM (inactive) | 39.4 µM (inactive) | > 100 µM (inactive) | – | > 100 µM (inactive) | 25.4 µM (inactive) | – | – | – | – | – |
| Nc1ccccc1C(=O)N/N=C1\C(=O)Nc2ccccc21 | 37.7 µM (inactive) | > 100 µM (inactive) | > 100 µM (inactive) | 89.9 µM (inactive) | > 100 µM (inactive) | > 100 µM (inactive) | > 100 µM (inactive) | 33.2 µM (inactive) | 43.6 µM (inactive) | > 100 µM (inactive) | 30.8 µM (inactive) | 88.5 µM (inactive) | > 100 µM (inactive) | > 100 µM (inactive) | 68.7 µM (inactive) | – | – | – | – | – |
| CC/C=C\C/C=C\C/C=C\CCCCCCCC(=O)OC [METHYL LINOLENATE] | – | – | – | > 100 µM (inactive) | – | > 100 µM (inactive) | – | > 100 µM (inactive) | > 100 µM (inactive) | > 100 µM (inactive) | – | > 100 µM (inactive) | > 100 µM (inactive) | > 100 µM (inactive) | – | > 100 µM (inactive) | > 100 µM (inactive) | > 100 µM (inactive) | > 100 µM (inactive) | – |
| O=C(OCCOC(=O)c1ccc2c(c1)C1(SCCS1)c1ccccc1-2)c1ccc2c(c1)C1(SCCS1)c1ccccc1-2 | – | – | – | > 100 µM (inactive) | – | > 100 µM (inactive) | – | > 100 µM (inactive) | > 100 µM (inactive) | – | – | > 100 µM (inactive) | > 100 µM (inactive) | > 100 µM (inactive) | – | 27.5 µM (inactive) | > 100 µM (inactive) | > 100 µM (inactive) | – | > 100 µM (inactive) |
| CC(OC(=O)C(Cc1ccccc1)NC(=O)C(Cc1ccccc1)NC(=O)OC(C)(C)C)C(=O)OCc1ccccc1 (stereo not drawn) (Boc-Phe-Phe-[Lac]-OBn; configuration not given here) | > 100 µM (inactive) | > 100 µM (inactive) | > 100 µM (inactive) | > 100 µM (inactive) | > 100 µM (inactive) | – | > 100 µM (inactive) | – | > 100 µM (inactive) | > 100 µM (inactive) | > 100 µM (inactive) | > 100 µM (inactive) | > 100 µM (inactive) | > 100 µM (inactive) | > 100 µM (inactive) | – | – | – | – | – |
| Cc1n[nH]c(CC#N)n1 | – | > 100 µM (inactive) | – | > 100 µM (inactive) | > 100 µM (inactive) | > 100 µM (inactive) | > 100 µM (inactive) | – | > 100 µM (inactive) | > 100 µM (inactive) | > 100 µM (inactive) | > 100 µM (inactive) | > 100 µM (inactive) | – | > 100 µM (inactive) | – | – | – | – | – |
| Cn1c(=O)c(C#N)c(O)c2cc3ccccc3nc21 | – | – | – | – | – | > 100 µM (inactive) | – | – | – | – | – | > 100 µM (inactive) | > 100 µM (inactive) | > 100 µM (inactive) | > 100 µM (inactive) | > 100 µM (inactive) | > 100 µM (inactive) | > 100 µM (inactive) | > 100 µM (inactive) | > 100 µM (inactive) |
| OC1CCOc2ccccc21 (stereo not given) | – | – | – | > 100 µM (inactive) | – | > 100 µM (inactive) | – | – | > 100 µM (inactive) | – | – | > 100 µM (inactive) | – | > 100 µM (inactive) | > 100 µM (inactive) | 56.2 µM (inactive) | > 100 µM (inactive) | > 100 µM (inactive) | > 100 µM (inactive) | > 100 µM (inactive) |
| O=C1CCC(NC(=O)Cc2ccc(O)cc2)C(=O)N1 (stereo not given) | – | – | – | > 2500 µM (inactive) | – | – | – | > 2500 µM (inactive) | – | – | – | > 2500 µM (inactive) | > 2500 µM (inactive) | – | – | > 2500 µM (inactive) | > 2500 µM (inactive) | > 2500 µM (inactive) | > 2500 µM (inactive) | > 2500 µM (inactive) |
| COc1ccc(C(=O)NNC(=O)c2nsc3ccccc23)cc1 | – | – | – | – | – | > 100 µM (inactive) | – | – | 44.5 µM (inactive) | – | – | > 100 µM (inactive) | – | – | > 100 µM (inactive) | – | 63 µM (inactive) | > 100 µM (inactive) | > 100 µM (inactive) | > 100 µM (inactive) |
| CCC(=O)NC(Nc1cccc(F)c1)(C(F)(F)F)C(F)(F)F | 98.6 µM (inactive) | > 100 µM (inactive) | > 100 µM (inactive) | 29.6 µM (inactive) | > 100 µM (inactive) | > 100 µM (inactive) | > 100 µM (inactive) | – | – | > 100 µM (inactive) | > 100 µM (inactive) | > 100 µM (inactive) | > 100 µM (inactive) | – | > 100 µM (inactive) | – | – | – | – | – |
| COP(=O)(OC)C(N)Cc1c[nH]c2ccccc12 (stereo not given) | > 100 µM (inactive) | > 100 µM (inactive) | > 100 µM (inactive) | > 100 µM (inactive) | > 100 µM (inactive) | – | > 100 µM (inactive) | > 100 µM (inactive) | > 100 µM (inactive) | > 100 µM (inactive) | – | – | > 100 µM (inactive) | – | – | – | – | – | – | – |
| Cc1ccc(C2CC(c3cccc([N+](=O)[O-])c3)=Nc3ccccc3S2)cc1 (stereo not given) | – | – | – | 20.5 µM (inactive) | – | 51.5 µM (inactive) | – | > 54.3 µM (inactive) | > 62.8 µM (inactive) | – | – | 18 µM (inactive) | 50.7 µM (inactive) | > 88.9 µM (inactive) | 29 µM (inactive) | 15.4 µM (inactive) | 22.5 µM (inactive) | 40.4 µM (inactive) | 33.7 µM (inactive) | 27.2 µM (inactive) |

From ChEMBL document CHEMBL1201862, “PubChem BioAssay data set” (2004)
